Source: patent US20150064227A1, “Sporicidal Formulation Including Botanical Extracts/Botanical-Derived Ingredients” (priority 2011, published 2015)

Legend:
bacterial spores = assay: Sporicidal Efficacy Test, spore species not given; format: cell-based; conditions: under the Sporicidal Efficacy Test; concentration not given
Source text: (§1) To determine the kill rate of solutions of interest against bacterial spores.
(§2) Materials: • 1. Test solutions of interest • 2. Clostridium difficile ATCC 43593 • 3. Geobacillus stearothermophilus CICC 10142 • 4. Filter sterilized MilliQ water • 5. Neutralization broth (prepared according to directions below) • 6. Brain Heart Infusion (BHI) agar plates with 0.15% Sodium Taurocholate • 7. Tryptic Soy Agar (TSA) plates • 8. Taurocholic acid sodium salt hydrate (Sigma-Aldrich T-4009) • 9. Phosphate buffered saline (PBS) pH 7.2 • 10. Fetal Bovine Serum (FBS) • 11. Sterile plating beads • 12. Sterile Eppendorf vials (1.5 mL) • 13. Sterile tubes (15 mL) • 14. Pipettes and sterile pipette tips (100 μL and 1000 μL) • 15. Incubator capable of 37±3° C. • 16. Anaerobic rectangular jar (7 Liter AnaeroPack System commercially available from Mitsubishi Gas Chemical Co.) with 3 GasPak satchels (BD GasPak EZ, #260678)
(§3) Procedure: • 1. Prepare culture stock of organism of interest to 10^7 CFU/ml in PBS. • 2. Thoroughly vortex the stock culture for ten minutes at medium-high speed. • 3. Dilute a small portion of the stock culture in MilliQ filter sterilized water and add FBS soil load to the inoculum to achieve a concentration of 5% v/v FBS. • 4. Place the inoculum in a sonicating water bath for five cycles of one minute on, one minute off • 5. Add 100 μL of spore culture to sterile vial containing 900 μL of test solution and vortex. • 6. After the test exposure time, vortex the vials. • 7. Transfer 100 μL of test solution and spore mixture to sterile tubes containing 900 μL neutralization broth to neutralize. • 8. Place the neutralized samples in a sonicating water bath for five cycles of one minute on, one minute off • 9. Vortex each tube. For C. difficile, pipette 100 μL of each neutralized sample on BHI+0.15% sodium taurocholate media plates (prepared in lab according to dehydrated powder instructions). For G. stearothermophilus, pipette 100 μL of each neutralized sample onto TSA plates. Spread using sterile beads. • 10. Prepare a control sample by adding the spore culture to 900 μL of filter sterilized MQ water and repeat steps 3-6 above. Dilute control code to achieve 10^2 CFU/ml. • 11. For C. difficile, place plates in anaerobic jars or boxes (with appropriate number of catalase pouches) or in the anaerobic chamber and incubate for 48±8 hours at 37±3° C. For G. stearothermophilus, incubate plates aerobically for 48±8 hours at […]. • 12. After incubation, enumerate colonies and record results. Calculate Log10 reduction by comparing the number of colonies recovered from the test solution versus those recovered with the control.
(§4) Neutralization Broth Preparation: • 1. Mix the following ingredients: • 1 L Letheen broth • 0.3% ppm Lecithin • 3% ppm Tween 80 • 0.1% ppm Histidine • 2. Solution is sterilized by autoclave. • 3. Catalase (0.1-0.2%) is added when completely cooled and then filter sterilized.

[1] = system: C. diff. spores (Clostridium difficile ATCC 43593); assay: Sporicidal Efficacy Test against C. diff. spores; format: cell-based; conditions: for sporicidal activity against C. diff. (in words): concentration not given
Source text: as §1, §2, §3, §4

[2] = botanical-derived ingredient 10 mg/ml in 75 % ethanol / 25 % water by volume

| Molecule | sporicidal activity (in words) (bacterial spores) | other results |
| --- | --- | --- |
| COc1ccc(-c2oc3c(CC=C(C)C)c(O)cc(O)c3c(=O)c2O)cc1 [icaritin] | None of these ingredients derived from botanical extracts illustrated sporicidal activity | – |
| CC(C)=CCC[C@]1(C)C=Cc2c(O)c3c(c(CC=C(C)C)c2O1)O[C@]12C(=C[C@@H]4C[C@H]1C(C)(C)O[C@@]2(C/C=C(/C)C(=O)O)C4=O)C3=O [Gambogic acid] | demonstrated sporicidal activity | Log Reduction (5 min contact time) [1, 2]: 3.96 |
| CC(C)=CCc1cc(-c2coc3cc(O)ccc3c2=O)ccc1O [neobavaisoflavone] | None of these ingredients derived from botanical extracts illustrated sporicidal activity | – |
| CC(C)=CCCC1(C)CC(O)c2c(O)c3c(c(CC=C(C)C)c2O1)OC12C(=CC4CC1C(C)(C)OC2(C/C=C(\C)C(=O)O)C4=O)C3=O (stereo not drawn) [Neogambogic acid] | demonstrated sporicidal activity | Log Reduction (5 min contact time) [1, 2]: 3.96 |
| OC[C@H]1O[C@@H](OCCc2ccc(O)cc2)[C@H](O)[C@@H](O)[C@@H]1O [salidroside] | None of these botanical extracts illustrated sporicidal activity | – |
| O=c1c(O)c(-c2ccc(O)cc2)oc2cc(O)cc(O)c12 [kaempferol] | None of these botanical extracts illustrated sporicidal activity | – |
| NCCC(=O)O [β-alanine] | None of these ingredients derived from botanical extracts illustrated sporicidal activity | – |
| O=C(O)C=Cc1ccc(O)cc1 [p-hydroxy-cinnamic acid] | None of these botanical extracts illustrated sporicidal activity | – |
| CC(C)=CCc1cc2c(cc1O)O[C@H](c1ccc(O)cc1)CC2=O [bavachin] | None of these ingredients derived from botanical extracts illustrated sporicidal activity | – |
| CC(C)=CCOc1c2occc2cc2ccc(=O)oc12 [imperatonin] | None of these ingredients derived from botanical extracts illustrated sporicidal activity | – |
| CC1(C)CC[C@]2(C(=O)O)CC[C@]3(C)C(=CC[C@@H]4[C@@]5(C)CC[C@H](O)C(C)(C)[C@@H]5CC[C@]43C)[C@@H]2C1 [oleanolic acid] | None of these ingredients derived from botanical extracts illustrated sporicidal activity | – |
| CC(C)=CCOc1c2ccoc2cc2oc(=O)ccc12 [isoimperatorin] | None of these ingredients derived from botanical extracts illustrated sporicidal activity | – |
| O=c1c(OC2OC(CO)C(O)C(O)C2O)c(-c2ccc(O)c(O)c2)oc2cc(O)cc(O)c12 (stereo not drawn) [isoquercetrin] | None of these ingredients derived from botanical extracts illustrated sporicidal activity | – |
| O=c1cc(-c2ccccc2)oc2cc(O)c(O)c(O)c12 [noroxylin] | None of these botanical extracts illustrated sporicidal activity | – |
| O=C(O)[C@@H]1CCCN1 [L-proline] | None of these ingredients derived from botanical extracts illustrated sporicidal activity | – |
| COc1ccc2ccc(=O)oc2c1CC=C(C)C [osthole] | None of these botanical extracts illustrated sporicidal activity | – |

| Molecule | sporicidal activity (in words) (bacterial spores) | other results |
| --- | --- | --- |
| Cc1coc2c1C(=O)C(=O)c1c-2ccc2c1CCCC2(C)C [tanshinone IIA] | None of these ingredients derived from botanical extracts illustrated sporicidal activity | sporicidal activity against C. diff. (in words) [1]: no detectable effect |
| COC(=O)C1=CO[C@@H](O[C@@H]2O[C@H](CO)[C@@H](O)[C@H](O)[C@H]2O)[C@@H]2C(CO)=CC[C@H]12 [geniposide] | None of these ingredients derived from botanical extracts illustrated sporicidal activity | – |
| O=C(O)c1ccc(O)c(O)c1 [protocatechuic acid] | None of these ingredients derived from botanical extracts illustrated sporicidal activity | – |
| O=c1c(-c2ccc(O)cc2)coc2c([C@@H]3O[C@H](CO)[C@@H](O)[C@H](O)[C@H]3O)c(O)ccc12 [puerarin] | None of these botanical extracts illustrated sporicidal activity | – |
| bavachinin | None of these ingredients derived from botanical extracts illustrated sporicidal activity | – |
| Cc1cccc2c3c(ccc12)C1=C(C(=O)C3=O)[C@@H](C)CO1 [dihydrotanshinone] | None of these ingredients derived from botanical extracts illustrated sporicidal activity | sporicidal activity against C. diff. (in words) [1]: no detectable effect |
| O=C(O)/C=C/c1ccc(O)c(O)c1 [caffeic acid] | None of these ingredients derived from botanical extracts illustrated sporicidal activity | – |
| O=c1c(-c2ccc(O)cc2)coc2cc(O)cc(O)c12 [genistein] | None of these botanical extracts illustrated sporicidal activity | – |
| CC[C@H](/C=C/[C@@H](C)[C@H]1CC[C@H]2[C@@H]3CC=C4C[C@@H](O)CC[C@]4(C)[C@H]3CC[C@]12C)C(C)C [stigmasterol] | None of these ingredients derived from botanical extracts illustrated sporicidal activity | – |
| CC12CCC(CC1)C(C)(C)O2 [cineole] | None of these ingredients derived from botanical extracts illustrated sporicidal activity | – |
| O=c1c(O)c(-c2ccc(O)c(O)c2)oc2cc(O)cc(O)c12 [quercetin] | None of these botanical extracts illustrated sporicidal activity | – |
| O=c1cc(-c2ccc(O)c(O)c2)oc2cc(O)cc(O)c12 [luteolin] | None of these botanical extracts illustrated sporicidal activity | – |
| O=C(O)c1ccc(O)cc1 [p-hydroxybenzoic acid] | None of these ingredients derived from botanical extracts illustrated sporicidal activity | – |
| C[C@H]1COC2=C1C(=O)C(=O)c1c2ccc2c1CCCC2(C)C [Cryptotanshinone] | – | Log Reduction (5 min contact time) ([1]; botanical-derived ingredient 5.9 mg/ml in 75 % ethanol / 25 % water by volume): 3.43 |
| COc1cc(/C=C/C(=O)O)ccc1O [ferulic acid] | None of these ingredients derived from botanical extracts illustrated sporicidal activity | – |
| C[C@H](N)C(=O)O [L-alanine] | None of these ingredients derived from botanical extracts illustrated sporicidal activity | – |
